Measurements published in US10844032B2, “Substituted benzofuran, benzothiophene and indole Mcl-1 inhibitors” (Vanderbilt University, priority 2012, dated 2020).

Each molecule was assayed against recombinant Mcl-1 (residues 172-327) (Homo sapiens (Human), UniProt Q07820) (assay: Bak peptide fluorescence polarization anisotropy competition assay, Mcl-1). Conditions: Table 2, Ki range; FITC-Bak peptide 10 nM, Mcl-1 14 nM; read-out: Ki for inhibition of Mcl-1.
Type: binding

Sequence of recombinant Mcl-1 (residues 172-327) (Q07820 172-327): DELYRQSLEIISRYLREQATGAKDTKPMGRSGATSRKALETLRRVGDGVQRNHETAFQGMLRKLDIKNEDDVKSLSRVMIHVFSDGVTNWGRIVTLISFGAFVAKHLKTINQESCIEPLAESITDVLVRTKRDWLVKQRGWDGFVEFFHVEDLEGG

Ki [nM] | Compound
≤ 100 | Cc1cc(OCCCc2c(C(=O)NS(=O)(=O)c3ccccc3)[nH]c3c(-c4c(C)noc4C)cccc23)cc(C)c1Cl [Example 88, 3-(3-(4-chloro-3,5-dimethylphenoxy)propyl)-7-(3,5-dimethylisoxazol-4-yl)-N-(phenylsulfonyl)-1H-indole-2-carboxamide]
≤ 100 | Cc1ccncc1-c1cccc2c(CCCOc3cc(C)c(Cl)c(C)c3)c(C(=O)NS(=O)(=O)c3ccccc3)[nH]c12 [Example 89, 3-(3-(4-chloro-3,5-dimethylphenoxy)propyl)-7-(4-methylpyridin-3-yl)-N-(phenylsulfonyl)-1H-indole-2-carboxamide]
≤ 100 | COc1ccncc1-c1cccc2c(CCCOc3cc(C)c(Cl)c(C)c3)c(C(=O)NS(=O)(=O)c3ccccc3)[nH]c12 [Example 90, 3-(3-(4-chloro-3,5-dimethylphenoxy)propyl)-7-(4-methoxypyridin-3-yl)-N-(phenylsulfonyl)-1H-indole-2-carboxamide]
≤ 100 | Cc1cc(OCCCc2c(C(=O)NS(=O)(=O)c3ccccc3)[nH]c3c(-c4ccnc5ccccc45)cccc23)cc(C)c1Cl [Example 92, 3-(3-(4-chloro-3,5-dimethylphenoxy)propyl)-N-(phenylsulfonyl)-7-(quinolin-4-yl)-1H-indole-2-carboxamide]

Same assay, conditions: read-out: Ki for inhibition of Mcl-1

Compound | Ki [nM]
CS(=O)(=O)NC(=O)c1sc2ccccc2c1CCCOc1cccc2ccccc12 [Example 61, N-(methylsulfonyl)-3-(3-(naphthalen-1-yloxy)propyl)benzo[b]thiophene-2-carboxamide] | 1000 to 9990
O=C(NS(=O)(=O)Cc1ccccc1)c1sc2ccccc2c1CCCOc1cccc2ccccc12 [Example 62, N-(Benzylsulfonyl)-3-(3-(naphthalen-1-yloxy)propyl)benzo[b]thiophene-2-carboxamide] | 1000 to 9990
O=C(O)c1sc2ccccc2c1CCCc1cccc2ccccc12 [Example 63, 3-(3-(naphthalen-1-yl)propyl)benzo[b]thiophene-2-carboxylic acid] | 1000 to 9990
O=C(O)c1sc2ccccc2c1CCc1cccc2ccccc12 [Example 64, 3-(2-(naphthalen-1-yl)ethyl)benzo[b]thiophene-2-carboxylic acid] | 1000 to 9990
O=C(NS(=O)(=O)C1CC1)c1sc2ccccc2c1CCCOc1cccc2ccccc12 [Example 67, N-(cyclopropylsulfonyl)-3-(3-(naphthalen-1-yloxy)propyl)benzo[b]thiophene-2-carboxamide] | 1000 to 9990
Cc1cc(OCCCc2c(C(=O)NS(C)(=O)=O)sc3ccccc23)cc(C)c1Cl [Example 68, 3-(3-(4-chloro-3,5-dimethylphenoxy)propyl)-N-(methylsulfonyl)benzo[b]thiophene-2-carboxamide] | 1000 to 9990
Cc1cc(OCCCc2c(C(=O)NS(=O)(=O)C3CC3)sc3ccccc23)cc(C)c1Cl [Example 69, 3-(3-(4-chloro-3,5-dimethylphenoxy)propyl)-N-(cyclopropylsulfonyl)benzo[b]thiophene-2-carboxamide] | 1000 to 9990
Cc1cc(OCCCc2c(C(=O)NS(=O)(=O)Cc3ccccc3)sc3ccccc23)cc(C)c1Cl [Example 70, N-(benzylsulfonyl)-3-(3-(4-chloro-3,5-dimethylphenoxy)propyl)benzo[b]thiophene-2-carboxamide] | 501 to 999
Cc1cc(OCCCc2c(C(=O)NS(C)(=O)=O)sc3cccc(Cl)c23)cc(C)c1Cl [Example 71, 4-chloro-3-(3-(4-chloro-3,5-dimethylphenoxy)propyl)-N-(methylsulfonyl)benzo[b]thiophene-2-carboxamide] | 1000 to 9990
Cc1cc(OCCCc2c(C(=O)NS(C)(=O)=O)sc3cc(Cl)ccc23)cc(C)c1Cl [Example 72, 6-chloro-3-(3-(4-chloro-3,5-dimethylphenoxy)propyl)-N-(methylsulfonyl)benzo[b]thiophene-2-carboxamide] | 1000 to 9990
O=C(O)c1sc2c(NCc3ccccc3)cccc2c1CCCOc1cccc2ccccc12 [Example 73, 7-(benzylamino)-3-(3-(naphthalen-1-yloxy)propyl)benzo[b]thiophene-2-carboxylic acid] | 1000 to 9990
CS(=O)(=O)NC(=O)c1[nH]c2ccccc2c1CCCOc1cccc2c1CCC2 [Example 74, 3-(3-((2,3-dihydro-1H-inden-4-yl)oxy)propyl)-N-(methylsulfonyl)-1H-indole-2-carboxamide] | 1000 to 9990
CS(=O)(=O)NC(=O)c1[nH]c2cc(Cl)ccc2c1CCCOc1cccc2c1CCCC2 [Example 75, 6-chloro-N-(methylsulfonyl)-3-(3-((5,6,7,8-tetrahydronaphthalen-1-yl)oxy)propyl)-1H-indole-2-carboxamide] | 501 to 999
Cc1cc(OCCCc2c(C(=O)NS(C)(=O)=O)[nH]c3c(Br)cccc23)cc(C)c1Cl [Example 83, 7-bromo-3-(3-(4-chloro-3,5-dimethylphenoxy)propyl)-N-(methylsulfonyl)-1H-indole-2-carboxamide] | 301 to 500

Continued, values first:

Ki [nM] | Compound
101 to 299 | CS(=O)(=O)NC(=O)c1[nH]c2cc(Cl)ccc2c1CCCOc1cccc2ccccc12 [Example 52, 6-chloro-N-(methylsulfonyl)-3-(3-(naphthalen-1-yloxy)propyl)-1H-indole-2-carboxamide]
301 to 500 | Cc1cc(OCCCc2c(C(=O)NS(C)(=O)=O)[nH]c3cc(Cl)ccc23)ccc1Cl [Example 53, 6-chloro-3-(3-(4-chloro-3-methylphenoxy)propyl)-N-(methylsulfonyl)-1H-indole-2-carboxamide]
101 to 299 | Cc1cc(OCCCc2c(C(=O)NS(C)(=O)=O)[nH]c3cc(Cl)ccc23)cc(C)c1Cl [Example 54, 6-chloro-3-(3-(4-chloro-3,5-dimethylphenoxy)propyl)-N-(methylsulfonyl)-1H-indole-2-carboxamide]
101 to 299 | Cc1cc(OCCCc2c(C(=O)NS(=O)(=O)C3CC3)[nH]c3cc(Cl)ccc23)cc(C)c1Cl [Example 65, 6-chloro-3-(3-(4-chloro-3,5-dimethylphenoxy)propyl)-N-(cyclopropylsulfonyl)-1H-indole-2-carboxamide]
101 to 299 | Cc1cc(OCCCc2c(C(=O)NS(=O)(=O)Cc3ccccc3)[nH]c3cc(Cl)ccc23)cc(C)c1Cl [Example 66, N-(benzylsulfonyl)-6-chloro-3-(3-(4-chloro-3,5-dimethylphenoxy)propyl)-1H-indole-2-carboxamide]
301 to 500 | CS(=O)(=O)NC(=O)c1[nH]c2cc(Cl)ccc2c1CCCOc1ccc(Cl)c2ccccc12 [Example 76, 6-chloro-3-(3-((4-chloronaphthalen-1-yl)oxy)propyl)-N-(methylsulfonyl)-1H-indole-2-carboxamide]
301 to 500 | Cc1cc(OCCCc2c(C(=O)NS(C)(=O)=O)[nH]c3cc(C(F)(F)F)ccc23)ccc1Cl [Example 77, 3-(3-(4-chloro-3-methylphenoxy)propyl)-N-(methylsulfonyl)-6-(trifluoromethyl)-1H-indole-2-carboxamide]
301 to 500 | Cc1cc(OCCCc2c(C(=O)NS(C)(=O)=O)[nH]c3cc(C(F)(F)F)ccc23)cc(C)c1Cl [Example 78, 3-(3-(4-chloro-3,5-dimethylphenoxy)propyl)-N-(methylsulfonyl)-6-(trifluoromethyl)-1H-indole-2-carboxamide]
301 to 500 | CS(=O)(=O)NC(=O)c1[nH]c2cc(C(F)(F)F)ccc2c1CCCOc1cccc2ccccc12 [Example 79, N-(methylsulfonyl)-3-(3-(naphthalen-1-yloxy)propyl)-6-(trifluoromethyl)-1H-indole-2-carboxamide]
101 to 299 | Cc1cc(OCCCc2c(C(=O)NS(C)(=O)=O)[nH]c3cccc(C(F)(F)F)c23)ccc1Cl [Example 80, 3-(3-(4-chloro-3-methylphenoxy)propyl)-N-(methylsulfonyl)-4-(trifluoromethyl)-1H-indole-2-carboxamide]
301 to 500 | CS(=O)(=O)NC(=O)c1[nH]c2cccc(C(F)(F)F)c2c1CCCOc1cccc2ccccc12 [Example 81, N-(methylsulfonyl)-3-(3-(naphthalen-1-yloxy)propyl)-4-(trifluoromethyl)-1H-indole-2-carboxamide]
101 to 299 | Cc1cc(OCCCc2c(C(=O)NS(C)(=O)=O)[nH]c3cccc(C(F)(F)F)c23)cc(C)c1Cl [Example 82, 3-(3-(4-chloro-3,5-dimethylphenoxy)propyl)-N-(methylsulfonyl)-4-(trifluoromethyl)-1H-indole-2-carboxamide]
101 to 299 | Cc1ccccc1-c1cccc2c(CCCOc3cc(C)c(Cl)c(C)c3)c(C(=O)NS(C)(=O)=O)[nH]c12 [Example 84, 3-(3-(4-chloro-3,5-dimethylphenoxy)propyl)-N-(methylsulfonyl)-7-(o-tolyl)-1H-indole-2-carboxamide]
101 to 299 | COc1ccccc1-c1cccc2c(CCCOc3cc(C)c(Cl)c(C)c3)c(C(=O)NS(C)(=O)=O)[nH]c12 [Example 85, 3-(3-(4-chloro-3,5-dimethylphenoxy)propyl)-7-(2-methoxyphenyl)-N-(methylsulfonyl)-1H-indole-2-carboxamide]
101 to 299 | Cc1cc(OCCCc2c(C(=O)NS(=O)(=O)c3ccccc3)[nH]c3c(-c4ccco4)cccc23)cc(C)c1Cl [Example 86, 3-(3-(4-chloro-3,5-dimethylphenoxy)propyl)-7-(furan-2-yl)-N-(phenylsulfonyl)-1H-indole-2-carboxamide]
101 to 299 | Cc1cc(OCCCc2c(C(=O)NS(=O)(=O)c3ccccc3)[nH]c3c(-c4ccoc4)cccc23)cc(C)c1Cl [Example 87, 3-(3-(4-chloro-3,5-dimethylphenoxy)propyl)-7-(furan-3-yl)-N-(phenylsulfonyl)-1H-indole-2-carboxamide]
101 to 299 | Cc1cc(OCCCc2c(C(=O)NS(=O)(=O)c3ccccc3)[nH]c3c(-c4cccnc4)cccc23)cc(C)c1Cl [Example 93, 3-(3-(4-chloro-3,5-dimethylphenoxy)propyl)-N-(phenylsulfonyl)-7-(pyridin-3-yl)-1H-indole-2-carboxamide]
101 to 299 | Cc1cc(OCCCc2c(C(=O)NS(=O)(=O)c3ccccc3)[nH]c3c(-c4ccncc4)cccc23)cc(C)c1Cl [Example 94, 3-(3-(4-chloro-3,5-dimethylphenoxy)propyl)-N-(phenylsulfonyl)-7-(pyridin-4-yl)-1H-indole-2-carboxamide]
